Reference: ChEMBL document CHEMBL1152560, “Substituted 2-arylbenzothiazoles as kinase inhibitors: hit-to-lead optimization” (Bioorg Med Chem, 2009)

Columns and labels:
[1] = molecular target: T1, Tyrosine-protein kinase Mer (Homo sapiens) (UniProt Q12866); experiment: Residual activity of MERTK at 0.1 uM by microplate scintillation counting
T1 sequence (whole entry): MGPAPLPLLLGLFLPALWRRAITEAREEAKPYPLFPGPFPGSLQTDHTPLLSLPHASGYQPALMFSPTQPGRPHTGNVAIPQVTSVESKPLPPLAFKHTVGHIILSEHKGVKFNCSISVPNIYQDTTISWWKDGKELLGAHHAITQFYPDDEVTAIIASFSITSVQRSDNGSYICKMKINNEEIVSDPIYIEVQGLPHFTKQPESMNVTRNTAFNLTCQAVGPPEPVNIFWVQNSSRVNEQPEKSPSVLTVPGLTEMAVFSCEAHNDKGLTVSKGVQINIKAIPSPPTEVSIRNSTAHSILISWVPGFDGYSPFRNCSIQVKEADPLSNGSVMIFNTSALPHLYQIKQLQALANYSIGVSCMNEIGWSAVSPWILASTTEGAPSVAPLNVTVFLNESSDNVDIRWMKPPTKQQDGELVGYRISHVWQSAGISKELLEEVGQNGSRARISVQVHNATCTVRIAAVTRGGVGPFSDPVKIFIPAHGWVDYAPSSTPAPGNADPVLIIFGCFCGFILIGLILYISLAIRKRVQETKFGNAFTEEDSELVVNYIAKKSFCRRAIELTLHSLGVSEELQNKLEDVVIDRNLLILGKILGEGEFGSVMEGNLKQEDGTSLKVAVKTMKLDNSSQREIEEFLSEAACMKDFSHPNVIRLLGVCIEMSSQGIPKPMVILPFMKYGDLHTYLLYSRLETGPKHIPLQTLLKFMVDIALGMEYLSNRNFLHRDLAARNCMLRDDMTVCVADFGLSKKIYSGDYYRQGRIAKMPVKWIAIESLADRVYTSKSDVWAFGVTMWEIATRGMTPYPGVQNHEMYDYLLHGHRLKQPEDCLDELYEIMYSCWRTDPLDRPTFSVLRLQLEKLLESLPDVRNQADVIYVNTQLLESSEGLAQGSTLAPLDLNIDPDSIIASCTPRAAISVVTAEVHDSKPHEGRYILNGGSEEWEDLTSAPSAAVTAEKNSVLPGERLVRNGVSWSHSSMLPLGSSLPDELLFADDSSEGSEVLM

[2] = molecular target: CDK9/cyclin T1 (Homo sapiens) (UniProt O60563+P50750); experiment: Residual activity of CDK9/Cyclin T at 10 uM by microplate scintillation counting; type: protein-complex assay
[3] = molecular target: Fibroblast growth factor receptor 3 (Homo sapiens) (UniProt P22607); experiment: Residual activity of FGFR3 at 10 uM by microplate scintillation counting
[4] = molecular target: Cyclin-dependent kinase 7/ cyclin H (Homo sapiens) (UniProt P51946+P50613); experiment: Residual activity of CDK7/CyclinH/MAT1 at 0.1 uM by microplate scintillation counting; type: protein-complex assay
[5] = molecular target: T2, Serine/threonine-protein kinase NLK (Homo sapiens) (UniProt Q9UBE8); experiment: Residual activity of NLK at 0.1 uM by microplate scintillation counting
T2 sequence (whole entry): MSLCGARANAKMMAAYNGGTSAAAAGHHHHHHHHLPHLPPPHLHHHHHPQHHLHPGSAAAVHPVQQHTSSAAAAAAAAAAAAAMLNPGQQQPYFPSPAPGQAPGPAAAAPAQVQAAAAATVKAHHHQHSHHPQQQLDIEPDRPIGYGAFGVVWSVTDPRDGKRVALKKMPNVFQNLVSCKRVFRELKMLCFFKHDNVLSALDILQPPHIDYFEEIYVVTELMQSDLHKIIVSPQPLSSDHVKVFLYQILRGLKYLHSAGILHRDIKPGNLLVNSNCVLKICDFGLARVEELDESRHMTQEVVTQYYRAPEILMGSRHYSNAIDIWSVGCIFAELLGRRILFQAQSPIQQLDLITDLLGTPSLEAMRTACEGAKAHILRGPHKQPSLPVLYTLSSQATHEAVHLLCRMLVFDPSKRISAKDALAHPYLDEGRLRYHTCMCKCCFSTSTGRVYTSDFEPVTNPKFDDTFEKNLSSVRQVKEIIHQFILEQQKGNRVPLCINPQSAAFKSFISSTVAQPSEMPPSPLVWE

[6] = molecular target: T3, Serine/threonine-protein kinase D1 (Homo sapiens) (UniProt Q15139); experiment: Residual activity of PKCmu at 0.1 uM by microplate scintillation counting
T3 sequence (whole entry): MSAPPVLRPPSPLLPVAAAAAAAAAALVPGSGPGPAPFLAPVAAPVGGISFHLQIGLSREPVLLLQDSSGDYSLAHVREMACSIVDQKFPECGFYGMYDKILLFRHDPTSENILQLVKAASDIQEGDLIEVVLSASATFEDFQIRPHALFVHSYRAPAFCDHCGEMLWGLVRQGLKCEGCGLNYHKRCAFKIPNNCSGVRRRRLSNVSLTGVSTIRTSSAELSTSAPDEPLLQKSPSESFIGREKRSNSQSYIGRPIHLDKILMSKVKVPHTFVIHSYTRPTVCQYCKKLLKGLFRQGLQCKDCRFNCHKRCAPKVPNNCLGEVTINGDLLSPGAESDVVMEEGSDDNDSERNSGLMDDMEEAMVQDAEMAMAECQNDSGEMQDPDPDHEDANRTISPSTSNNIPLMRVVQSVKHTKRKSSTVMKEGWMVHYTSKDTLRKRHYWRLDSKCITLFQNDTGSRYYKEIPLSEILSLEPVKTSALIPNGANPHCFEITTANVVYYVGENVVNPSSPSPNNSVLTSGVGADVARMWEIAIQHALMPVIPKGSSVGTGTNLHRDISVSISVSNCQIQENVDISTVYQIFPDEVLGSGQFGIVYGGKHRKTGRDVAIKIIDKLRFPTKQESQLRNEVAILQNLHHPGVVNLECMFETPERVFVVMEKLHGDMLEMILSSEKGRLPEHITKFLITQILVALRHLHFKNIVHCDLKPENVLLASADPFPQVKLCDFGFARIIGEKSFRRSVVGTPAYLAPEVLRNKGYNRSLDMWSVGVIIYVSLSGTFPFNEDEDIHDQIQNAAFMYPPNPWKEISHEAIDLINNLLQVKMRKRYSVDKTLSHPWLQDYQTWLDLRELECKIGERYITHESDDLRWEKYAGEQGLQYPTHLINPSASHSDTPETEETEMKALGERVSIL

Sequence of Fibroblast growth factor receptor 3 (Homo sapiens) (P22607 23-806 limits assumed): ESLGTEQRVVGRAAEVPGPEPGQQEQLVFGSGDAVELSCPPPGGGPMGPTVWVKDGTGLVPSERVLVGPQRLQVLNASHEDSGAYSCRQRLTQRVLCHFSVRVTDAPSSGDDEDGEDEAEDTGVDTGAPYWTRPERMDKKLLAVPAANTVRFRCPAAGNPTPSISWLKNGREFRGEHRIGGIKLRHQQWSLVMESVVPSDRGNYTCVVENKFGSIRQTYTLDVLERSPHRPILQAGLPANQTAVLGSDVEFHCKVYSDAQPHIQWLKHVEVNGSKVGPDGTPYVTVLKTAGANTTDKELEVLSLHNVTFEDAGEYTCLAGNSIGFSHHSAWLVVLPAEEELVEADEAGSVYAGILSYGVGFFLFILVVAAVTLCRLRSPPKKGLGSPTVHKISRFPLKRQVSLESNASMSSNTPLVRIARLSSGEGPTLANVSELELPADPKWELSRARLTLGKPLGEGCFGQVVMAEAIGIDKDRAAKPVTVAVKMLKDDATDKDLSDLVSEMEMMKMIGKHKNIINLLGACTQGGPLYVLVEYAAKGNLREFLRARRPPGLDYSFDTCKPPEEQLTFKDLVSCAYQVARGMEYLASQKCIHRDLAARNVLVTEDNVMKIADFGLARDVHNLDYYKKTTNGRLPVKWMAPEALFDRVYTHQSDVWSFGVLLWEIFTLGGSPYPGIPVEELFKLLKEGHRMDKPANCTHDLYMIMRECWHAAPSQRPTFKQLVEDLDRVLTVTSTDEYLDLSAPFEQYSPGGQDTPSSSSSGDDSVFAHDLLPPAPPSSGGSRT

residual activity [1] | residual activity [2] | residual activity [3] | residual activity [4] | residual activity [5] | residual activity [6] | SMILES
57% | 107% | 169% | 97% | 90% | 102% | COc1cc2c(Oc3ccc(-c4nc5ccccc5s4)cc3)ncnc2cc1OCCCN1CCCC1
75% | 109% | 171% | 104% | 94% | 91% | COc1cc2c(Oc3ccc(-c4nc5ccccc5s4)cc3)ncnc2cc1OCCCN1CCN(C)CC1
68% | 107% | 46% | 86% | 91% | 81% | COc1cc2c(Oc3ccc(-c4nc5ccccc5s4)cc3F)ncnc2cc1OCCCN1CCN(C)CC1
